Assay results from the Kinase Knowledgebase extract (Sharma et al. 2016).

target: ROCK2 (human) (UniProt O75116); test: Assessment of ROCK2 Kinase Activity
Sequence (O75116 whole entry, looked up): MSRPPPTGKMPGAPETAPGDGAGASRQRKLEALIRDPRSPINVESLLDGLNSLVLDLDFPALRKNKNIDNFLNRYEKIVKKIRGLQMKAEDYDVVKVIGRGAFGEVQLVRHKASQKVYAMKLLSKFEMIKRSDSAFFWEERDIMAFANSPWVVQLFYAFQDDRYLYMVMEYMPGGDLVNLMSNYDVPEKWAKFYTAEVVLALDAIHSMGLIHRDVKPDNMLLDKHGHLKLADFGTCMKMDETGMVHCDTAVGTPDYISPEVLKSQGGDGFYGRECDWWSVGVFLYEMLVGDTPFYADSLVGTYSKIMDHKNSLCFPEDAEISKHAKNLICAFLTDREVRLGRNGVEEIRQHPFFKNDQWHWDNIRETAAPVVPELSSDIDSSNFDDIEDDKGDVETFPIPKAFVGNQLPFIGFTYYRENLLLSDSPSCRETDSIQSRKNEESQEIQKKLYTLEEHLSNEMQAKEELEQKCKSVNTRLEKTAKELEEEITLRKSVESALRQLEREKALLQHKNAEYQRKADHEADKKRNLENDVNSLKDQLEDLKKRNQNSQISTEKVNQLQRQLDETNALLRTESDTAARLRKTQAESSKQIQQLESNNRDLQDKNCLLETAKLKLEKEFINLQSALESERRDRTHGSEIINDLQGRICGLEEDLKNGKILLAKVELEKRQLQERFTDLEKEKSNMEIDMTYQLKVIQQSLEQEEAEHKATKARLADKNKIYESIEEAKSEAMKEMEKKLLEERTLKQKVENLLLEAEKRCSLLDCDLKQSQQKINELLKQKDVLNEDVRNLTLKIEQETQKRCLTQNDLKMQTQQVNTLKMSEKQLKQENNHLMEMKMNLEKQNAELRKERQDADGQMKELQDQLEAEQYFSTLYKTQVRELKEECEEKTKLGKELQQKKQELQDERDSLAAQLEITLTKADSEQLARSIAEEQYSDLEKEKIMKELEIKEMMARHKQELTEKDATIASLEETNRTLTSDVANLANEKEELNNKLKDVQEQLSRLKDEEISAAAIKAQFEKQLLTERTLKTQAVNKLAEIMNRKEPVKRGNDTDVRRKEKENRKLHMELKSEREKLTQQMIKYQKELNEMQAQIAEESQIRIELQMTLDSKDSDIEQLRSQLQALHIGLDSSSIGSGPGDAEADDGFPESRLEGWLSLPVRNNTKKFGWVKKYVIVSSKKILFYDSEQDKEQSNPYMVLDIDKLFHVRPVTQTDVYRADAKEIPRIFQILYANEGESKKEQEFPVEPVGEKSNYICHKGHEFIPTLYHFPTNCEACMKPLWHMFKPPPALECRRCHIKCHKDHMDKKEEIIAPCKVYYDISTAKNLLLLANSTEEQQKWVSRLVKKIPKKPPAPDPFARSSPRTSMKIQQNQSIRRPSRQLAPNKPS

| SMILES | IC50 [nM] |
| --- | --- |
| COc1cccc(CNC(=O)c2cn(C)c3cc(-c4cn[nH]c4)ccc23)c1 | < 100 |
| COc1cccc(CN(CCN(C)C)C(=O)c2n[nH]c3cc(-c4cn[nH]c4)ccc23)c1 | < 100 |
| COc1cccc(CN(CCN(C)C)C(=O)c2cnc3cc(-c4cn[nH]c4)ccn23)c1 | < 100 |
| COc1cccc(CNC(=O)c2[nH]c3cc(-c4cn[nH]c4)ccc3c2CN2CCCC2c2ccccc2)c1 (configuration not stated) | 100 to 1000 |
| COc1cccc(CNC(=O)c2cc3ccc(-c4cn[nH]c4)cc3n2CCCO)c1 | < 100 |
| COc1cccc(CN(C)C(=O)c2cc3ccc(-c4cn[nH]c4)cc3[nH]2)c1 | < 100 |
| COc1cccc(CN(CCCN2CCN(C)CC2)C(=O)c2cc3ccc(-c4cn[nH]c4)nc3[nH]2)c1 | < 100 |
| COc1cccc(CNC(=O)c2cn3cc(-c4ccnc(N)n4)ccc3n2)c1 | 100 to 1000 |
| O=C(NCc1ccccc1)c1cnc2cc(-c3cn[nH]c3)ccn12 | < 100 |
| COc1cccc(CN(C)C(=O)c2n[nH]c3cc(-c4cn[nH]c4)ccc23)c1 | < 100 |
| O=C(NCC1CCCCC1)c1c[nH]c2cc(-c3cn[nH]c3)ccc12 | < 100 |
| COc1cccc(CN(CCN2CCCC2)C(=O)c2cc3ccc(-c4cn[nH]c4)cc3[nH]2)c1 | < 100 |
| COc1ccccc1CNC(=O)c1n[nH]c2cc(-c3cn[nH]c3)ccc12 | < 100 |
| COc1cccc(CNC(=O)c2cn(CCN3CCCC3)c3cc(-c4cn[nH]c4)ccc23)c1 | < 100 |
| COc1cccc(CNC(=O)c2[nH]c3cc(-c4cn[nH]c4)ccc3c2CN2CCN(C)CC2)c1 | < 100 |
| COc1cccc(CNC(=O)c2cn3cc(-c4cn[nH]c4)ccc3n2)c1 | 100 to 1000 |
| COc1cccc(CNC(=O)c2nn(C)c3cc(-c4cn[nH]c4)ccc23)c1 | < 100 |
| COc1cccc(CN(CCN(C)C)C(=O)c2cc3ccc(-c4cn[nH]c4)nc3[nH]2)c1 | < 100 |
| COc1cccc(CN(CCN2CCCC2)C(=O)c2cc3ccc(-c4cn[nH]c4)nc3[nH]2)c1 | < 100 |
| COc1ccc2c(c1)CC(c1cc(=O)n3cc(-c4ccncc4)ccc3n1)CO2 (configuration not stated) | 100 to 1000 |
| COc1cccc(CNC(=O)c2cc3ccc(-c4cn[nH]c4)nc3n2CCN2CCCC2)c1 | < 100 |
| COc1cccc(CNC(=O)c2cc3ccc(-c4cn[nH]c4)nc3[nH]2)c1 | < 100 |
| COc1cccc(CNC(=O)c2[nH]c3cc(-c4cn[nH]c4)ccc3c2CN(C)Cc2ccccc2)c1 | 100 to 1000 |
| COc1ccccc1CNC(=O)c1cn(CCCO)c2cc(-c3cn[nH]c3)ccc12 | < 100 |
| CCCn1nc(C(=O)NCc2cccc(OC)c2)c2ccc(-c3cn[nH]c3)cc21 | < 100 |
| COc1cccc(CCNC(=O)c2cn(CCN(C)C)c3cc(-c4cn[nH]c4)ccc23)c1 | 100 to 1000 |

| SMILES | IC50 [nM] |
| --- | --- |
| COc1cccc(CN(CCCN(C)C)C(=O)c2cn(C)c3cc(-c4cn[nH]c4)ccc23)c1 | < 100 |
| COc1cccc(CNC(=O)c2c[nH]c3cc(-c4cn[nH]c4)ccc23)c1 | < 100 |
| COc1cccc(CNC(=O)c2cc3ccc(-c4cn[nH]c4)nc3n2CCCO)c1 | < 100 |
| Cc1ccccc1CNC(=O)c1n[nH]c2cc(-c3cn[nH]c3)ccc12 | < 100 |
| COc1cccc(CN(CC2CC2)C(=O)c2n[nH]c3cc(-c4cn[nH]c4)ccc23)c1 | < 100 |
| COc1cccc(CNC(=O)c2c3ccc(-c4ccnc(N)n4)cc3nn2CC2CC2)c1 | 100 to 1000 |
| COc1cccc(CN(CCN(C)C)C(=O)c2cn3cc(-c4cn[nH]c4)ccc3n2)c1 | < 100 |
| COc1cccc(CNC(=O)c2nn(CC3CC3)c3cc(-c4ccnc(N)n4)ccc23)c1 | < 100 |
| COc1ccc2c(c1)CC(c1cc(=O)n3cc(-c4cn[nH]c4)ccc3n1)CO2 (configuration not stated) | < 100 |
| COc1cccc(CCNC(=O)c2n[nH]c3cc(-c4cn[nH]c4)ccc23)c1 | < 100 |
| COc1cccc(CN(C)C(=O)c2cn(CCCO)c3cc(-c4cn[nH]c4)ccc23)c1 | < 100 |
| COc1cccc([C@@H](C)NC(=O)c2cn(CCN3CCCC3)c3cc(-c4cn[nH]c4)ccc23)c1 | < 100 |
| O=C(NCCc1cccnc1)c1c[nH]c2cc(-c3cn[nH]c3)ccc12 | 100 to 1000 |
| COc1cccc(CN(C)C(=O)c2cc3ccc(-c4cn[nH]c4)nc3[nH]2)c1 | < 100 |
| COc1cccc(CN(C(=O)c2cc3ccc(-c4cn[nH]c4)nc3[nH]2)C2CC2)c1 | < 100 |
| COc1cccc(CNC(=O)c2n[nH]c3cc(-c4cn[nH]c4)ccc23)c1 | < 100 |
| COc1cccc(CNC(=O)c2nn(CCN(C)C)c3cc(-c4ccncc4)ccc23)c1 | < 100 |
| COc1cccc(CNC(=O)c2c3ccc(-c4cn[nH]c4)cc3nn2CC2CC2)c1 | 100 to 1000 |
| COc1cccc(CNC(=O)c2cc3ccc(-c4c[nH]nc4C)nc3[nH]2)c1 | < 100 |
| COc1cccc(CN(CCN(C)C)C(=O)c2nn(CC3CC3)c3cc(-c4cn[nH]c4)ccc23)c1 | < 100 |
| COc1cccc(CNC(=O)c2cn(-c3cccc(C(F)(F)F)c3)c3cc(-c4cn[nH]c4)ccc23)c1 | 100 to 1000 |
| COc1ccc(CNC(=O)c2c[nH]c3cc(-c4cn[nH]c4)ccc23)cc1 | 100 to 1000 |
| COc1cccc(CNC(=O)c2cnc3cc(-c4cn[nH]c4)ccn23)c1 | < 100 |
| COc1cccc(CNC(=O)c2nn(CCN(C)C)c3cc(-c4cn[nH]c4)ccc23)c1 | < 100 |
| COc1cccc(CNC(=O)c2cc3ccc(-c4cn[nH]c4)nc3n2C)c1 | < 100 |
| COc1cccc(CNC(=O)c2cc3ccc(-c4cn[nH]c4)cc3[nH]2)c1 | < 100 |
